Test results: article PMC8300687, “A Fine-Tuned Lipophilicity/Hydrophilicity Ratio Governs Antibacterial Potency and Selectivity of Bifurcated Halogen Bond-Forming NBTIs” (Antibiotics, 2021)
≈ marks a conversion by molar mass, not a printed value. Where two headings read alike, the source gives them in different places.

What was measured:
E. coli (QA-11.7) = experiment: MIC broth microdilution, E. coli QA-11.7; assay type: cell-based; conditions: Escherichia coli, 20 h, read-out: MIC E. coli (QA-11.7)
Protocol: (§1) Antimicrobial testing was carried out by the broth microdilution method in 96-well plate format following the Clinical and Laboratory Standards Institute (CLSI) guidelines and European Committee on Antimicrobial Susceptibility Testing (EUCAST) recommendations. Bacterial suspension of specific bacterial strain equivalent to 0.5 McFarland turbidity standard was diluted with cation-adjusted Mueller Hinton broth with TES (Thermo Fisher Diagnostic, Landsmeer, The Netherlands), to obtain a final inoculum of 10^5 CFU/mL. Compounds dissolved in DMSO and inoculum were mixed together and incubated for 18–20 h at 35 °C. Suspensions of Mycobacterium sp. were prepared into a tube of Middelbrook 7H9 broth supplemented with 5% OADC (Thermo Scientific, Trek Diagnostic Systems, West Sussex, UK) and incubated for at least 10 days. After incubation the minimal inhibitory concentration (MIC) values were determined by visual inspection as the lowest dilution of compounds showing no turbidity. Tetracycline was used as a positive control on every assay plate.

S. aureus (ATCC 29213) = experiment: MIC broth microdilution, S. aureus ATCC 29213; assay type: cell-based
Protocol: as §1

MRSA (QA-11.2) = experiment: MIC broth microdilution, MRSA QA-11.2; assay type: cell-based, methicillin-resistant S. aureus; conditions: Staphylococcus aureus, 20 h, read-out: MIC MRSA (QA-11.2)
Protocol: as §1

E. coli D22 = experiment: MIC broth microdilution, E. coli D22; assay type: cell-based; conditions: Escherichia coli
Protocol: as §1

S. aureus DNA gyrase = target: T1, S. aureus DNA gyrase (Staphylococcus aureus, UniProt P20831); experiment: biochemical; assay type: biochemical; conditions: for LE DNA Gyrase S. aureus: LE = (1.37/HA) × pIC50; for IC50: fluorescence plate supercoiling assay, mean of two to four measurements
T1 construct: purchased Inspiralis (Norwich, UK)
Protocol: (§2) A Gyrase Supercoiling High Throughput Plate assay kit, purchased from Inspiralis (Norwich. UK) was used to determine IC50 values of compounds on S. aureus and E. coli. […] Biotinylated oligonucleotide in wash buffer was immobilized onto the wells, and the excess oligonucleotide was washed off with wash buffer and ultrapure water. […] The reactions were stopped by adding the TF buffer (50 mM NaOAc (pH 4.7), 50 mM NaCl, and 50 mM MgCl2) to allow the triplex formation (biotin-oligonucleotide-plasmid) for additional 30 min. Afterward, the unbound plasmid was washed off using TF buffer, and the solution of Promega Diamond dye in T10 buffer (10 mM Tris-HCl (pH 8.0), 1 mM EDTA) was added. […] IC50 value represents the mean of two to four independent measurements.

E. coli Topo IV = target: T2, E. coli Topo IV (Escherichia coli, UniProt P0AFI2); experiment: Topo IV Relaxation High Throughput Plate assay, E. coli; assay type: biochemical; conditions: for LE Topo IV E. coli: LE = (1.37/HA) × pIC50
T2 construct: purchased Inspiralis (Norwich, UK)
Protocol: A Topo IV Relaxation High Throughput Plate assay kit, purchased from Inspiralis (Norwich. UK) was used to determine IC50 values of compounds on S. aureus and E. coli. […] Biotinylated oligonucleotide in wash buffer was immobilized onto the wells, and the excess oligonucleotide was washed off with wash buffer and ultrapure water. 1.5 U of S. aureus or E. coli […] enzyme was incubated together with 0.75 μg of supercoiled pNO1 plasmid as a substrate in the presence of 3 μL inhibitor solution in 10% DMSO and 0.008% Tween 20 at 37 °C for 30 min in a final reaction volume of 30 μL in dilution buffer (50 mM Tris-HCl (pH 7.5), 1 mM DTT, 1 mM EDTA, 40% (w/v) glycerol for S. aureus and 40 mM HEPES, KOH (pH 7.6), 100 mM potassium glutamate, 1 mM DTT, 1 mM EDTA, and 40% (v/v) glycerol for E. coli). The reactions were stopped by adding the TF buffer (50 mM NaOAc (pH 4.7), 50 mM NaCl, and 50 mM MgCl2) to allow the triplex formation (biotin-oligonucleotide-plasmid) for additional 30 min. Afterward, the unbound plasmid was washed off using TF buffer, and the solution of Promega Diamond dye in T10 buffer (10 mM Tris-HCl (pH 8.0), 1 mM EDTA) was added. […] IC50 value represents the mean of two to four independent measurements.

S. pneumoniae (QA-10/02) = experiment: MIC broth microdilution, S. pneumoniae; assay type: cell-based; conditions: Streptococcus pneumoniae
Protocol: as §1

MRSA (QA-11.4) = experiment: MIC broth microdilution, MRSA QA-11.4; assay type: cell-based, methicillin-resistant S. aureus; conditions: Staphylococcus aureus, 20 h, read-out: MIC MRSA (QA-11.4)
Protocol: as §1

E. coli DNA gyrase = target: T3, E. coli DNA gyrase (Escherichia coli, UniProt P0AES4); experiment: Gyrase Supercoiling High Throughput Plate assay, E. coli; assay type: biochemical; conditions: for LE DNA Gyrase E. coli: LE = (1.37/HA) × pIC50
T3 construct: purchased Inspiralis (Norwich, UK)
Protocol: as §2

E. coli N43 (CGSC# 5583) = experiment: MIC broth microdilution, E. coli N43; assay type: cell-based; conditions: Escherichia coli
Protocol: as §1

in vitro = conditions: PAMPA
Protocol: (§3) Prior to the measurements of solubility and permeability isocratic HPLC methods were developed. […] The individual method parameters for each compound are given in the Supplementary Materials Table S1.
A 96-well precoated three-layer PAMPA plates (Corning® Gentest™ Pre-coated PAMPA Plate System, Corning, NY, USA) were used according to the manufacturer’s instructions and as described previously with 300 µL of the donor solutions in the bottom compartment and 200 µL of the acceptor solution (pH 7.4 PBS) in the upper compartment at 37 °C and a 4-h incubation time. The initial and end donor solutions were injected at a 5 µL injection volume. The initial donor solutions were also diluted 100-fold and injected at a 100 µL injection volume to serve as external references for the end acceptor solutions which were injected at the same injection volume. The permeability calculations were made with a manufacturer-provided Excel spreadsheet directly from the measured peak areas accounting for the relevant dilutions and injection volumes.

[1] = Equilibrium solubility at pH 6.8; conditions: phosphate buffered saline, 37 °C, pH 6.8, aqueous buffer, thermodynamic from solid
Protocol: as §3
The vials were then placed in a homogenizer (Next Advance Bullet Blender, Troy, NY, USA) for 5 min ad speed setting “2” after which they were kept in a thermostated shaker (Tehtnica HeatMix, Domel, Slovenia) at 37 °C and 1200 RPM for 24 h. […] Twenty µL of these solutions were injected for the HPLC analysis by the described methods (Supplementary Materials Table S1). External standards for calibration were made in a mobile phase with 5% acetonitrile in a range of 30–90 mg/L and injected at 20 µL injection volumes.

[2] = multi-resistant isolate (ampicillin, azithromycin, cefotaxime, ertapenem, imipenem and others)
[3] = Staphylococcus aureus, ATCC29213; S. aureus ATCC 29213; read-out: S. aureus MIC (converted)
[4] = Staphylococcus aureus, ATCC29213; read-out: MIC S. aureus (ATCC 29213)
[5] = resistant to cefoxitin, chloramphenicol, clindamycin, linezolid, tetracycline, thiamulin, trimethoprim
[6] = D22, mutation in the lpxC gene that increases membrane permeability, read-out: MIC E. coli D22
[7] = read-out: E. coli N43 MIC in molar
[8] = read-out: MIC E. coli N43 (CGSC# 5583)

T3 sequence (P0AES4 whole entry): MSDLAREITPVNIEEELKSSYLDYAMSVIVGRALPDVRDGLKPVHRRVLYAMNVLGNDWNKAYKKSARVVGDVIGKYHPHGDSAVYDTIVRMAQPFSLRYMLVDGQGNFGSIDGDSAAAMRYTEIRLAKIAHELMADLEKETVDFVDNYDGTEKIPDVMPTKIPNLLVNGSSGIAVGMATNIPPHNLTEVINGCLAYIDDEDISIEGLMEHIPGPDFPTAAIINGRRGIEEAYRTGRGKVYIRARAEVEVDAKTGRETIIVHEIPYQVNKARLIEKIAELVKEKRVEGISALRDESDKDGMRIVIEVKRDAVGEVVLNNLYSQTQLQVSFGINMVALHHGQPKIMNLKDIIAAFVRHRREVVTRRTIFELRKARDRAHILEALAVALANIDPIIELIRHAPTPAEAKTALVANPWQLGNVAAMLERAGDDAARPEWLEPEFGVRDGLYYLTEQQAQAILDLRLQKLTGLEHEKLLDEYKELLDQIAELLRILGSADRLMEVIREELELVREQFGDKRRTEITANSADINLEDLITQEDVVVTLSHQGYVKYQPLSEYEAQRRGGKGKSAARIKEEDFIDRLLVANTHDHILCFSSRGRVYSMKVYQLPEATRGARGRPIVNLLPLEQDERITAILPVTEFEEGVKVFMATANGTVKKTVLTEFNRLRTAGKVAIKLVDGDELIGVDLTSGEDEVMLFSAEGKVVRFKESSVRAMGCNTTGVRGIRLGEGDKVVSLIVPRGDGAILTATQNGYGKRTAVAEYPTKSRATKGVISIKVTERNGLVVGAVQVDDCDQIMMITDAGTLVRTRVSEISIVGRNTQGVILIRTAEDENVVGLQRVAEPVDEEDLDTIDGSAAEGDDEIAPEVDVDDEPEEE
T1 sequence (P20831 whole entry): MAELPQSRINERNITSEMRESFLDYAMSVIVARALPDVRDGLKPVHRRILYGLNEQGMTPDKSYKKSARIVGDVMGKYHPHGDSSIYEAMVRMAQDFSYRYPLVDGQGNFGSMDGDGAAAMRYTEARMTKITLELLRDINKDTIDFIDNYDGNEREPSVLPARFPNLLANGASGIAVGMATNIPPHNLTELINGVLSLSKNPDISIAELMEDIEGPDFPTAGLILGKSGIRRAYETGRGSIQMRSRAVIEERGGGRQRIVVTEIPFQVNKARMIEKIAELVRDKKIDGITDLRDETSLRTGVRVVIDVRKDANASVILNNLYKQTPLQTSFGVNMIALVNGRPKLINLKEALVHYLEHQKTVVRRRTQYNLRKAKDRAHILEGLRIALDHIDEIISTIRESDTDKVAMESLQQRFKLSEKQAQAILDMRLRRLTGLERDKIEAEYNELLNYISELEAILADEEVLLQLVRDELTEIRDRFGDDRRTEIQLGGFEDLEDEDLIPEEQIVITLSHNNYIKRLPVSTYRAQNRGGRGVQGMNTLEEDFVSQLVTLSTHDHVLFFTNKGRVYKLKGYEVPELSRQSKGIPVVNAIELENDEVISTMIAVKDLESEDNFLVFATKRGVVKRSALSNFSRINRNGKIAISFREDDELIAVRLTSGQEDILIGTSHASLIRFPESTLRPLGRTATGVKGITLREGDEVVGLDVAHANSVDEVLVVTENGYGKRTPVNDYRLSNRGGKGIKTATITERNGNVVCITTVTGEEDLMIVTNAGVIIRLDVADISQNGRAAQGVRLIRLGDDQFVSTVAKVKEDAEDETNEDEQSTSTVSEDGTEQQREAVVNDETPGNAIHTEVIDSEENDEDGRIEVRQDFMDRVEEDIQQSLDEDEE
T1 sequence (P0A0K8 whole entry partner): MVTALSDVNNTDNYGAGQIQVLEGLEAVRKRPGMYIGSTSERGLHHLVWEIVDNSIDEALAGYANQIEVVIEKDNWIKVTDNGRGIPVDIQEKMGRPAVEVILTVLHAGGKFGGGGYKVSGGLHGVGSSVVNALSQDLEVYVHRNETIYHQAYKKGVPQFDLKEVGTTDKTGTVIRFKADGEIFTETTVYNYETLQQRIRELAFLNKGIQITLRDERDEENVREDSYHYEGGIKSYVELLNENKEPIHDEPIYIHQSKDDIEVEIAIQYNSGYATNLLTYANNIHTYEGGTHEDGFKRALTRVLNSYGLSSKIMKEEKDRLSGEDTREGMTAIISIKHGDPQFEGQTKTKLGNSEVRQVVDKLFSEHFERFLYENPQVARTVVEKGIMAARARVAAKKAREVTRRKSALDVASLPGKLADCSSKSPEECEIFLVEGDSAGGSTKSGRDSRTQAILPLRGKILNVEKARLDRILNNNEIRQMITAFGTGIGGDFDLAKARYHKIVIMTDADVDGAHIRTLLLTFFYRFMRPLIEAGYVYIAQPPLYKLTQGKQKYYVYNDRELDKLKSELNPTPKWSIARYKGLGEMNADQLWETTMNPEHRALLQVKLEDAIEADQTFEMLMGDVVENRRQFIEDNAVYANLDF
T2 sequence (P0AFI2 whole entry): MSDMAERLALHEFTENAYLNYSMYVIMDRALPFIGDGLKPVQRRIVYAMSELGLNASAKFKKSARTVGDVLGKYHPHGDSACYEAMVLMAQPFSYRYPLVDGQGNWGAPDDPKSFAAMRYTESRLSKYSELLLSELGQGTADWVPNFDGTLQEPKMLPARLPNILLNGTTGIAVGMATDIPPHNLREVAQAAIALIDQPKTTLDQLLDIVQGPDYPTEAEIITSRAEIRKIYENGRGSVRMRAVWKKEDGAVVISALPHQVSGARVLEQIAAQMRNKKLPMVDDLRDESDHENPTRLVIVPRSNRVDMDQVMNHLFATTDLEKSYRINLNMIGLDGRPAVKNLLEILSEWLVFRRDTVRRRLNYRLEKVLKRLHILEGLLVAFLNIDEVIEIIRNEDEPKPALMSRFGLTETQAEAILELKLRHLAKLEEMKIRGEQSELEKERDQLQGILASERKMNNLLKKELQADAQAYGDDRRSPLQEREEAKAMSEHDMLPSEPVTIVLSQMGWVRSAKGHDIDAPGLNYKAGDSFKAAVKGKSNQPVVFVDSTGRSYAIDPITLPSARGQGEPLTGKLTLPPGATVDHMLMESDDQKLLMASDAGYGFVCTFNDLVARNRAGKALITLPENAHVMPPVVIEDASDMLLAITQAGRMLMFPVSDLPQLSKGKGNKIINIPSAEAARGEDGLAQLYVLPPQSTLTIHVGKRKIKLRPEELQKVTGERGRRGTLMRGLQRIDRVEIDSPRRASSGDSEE
T2 sequence (P20083 whole entry, further chain): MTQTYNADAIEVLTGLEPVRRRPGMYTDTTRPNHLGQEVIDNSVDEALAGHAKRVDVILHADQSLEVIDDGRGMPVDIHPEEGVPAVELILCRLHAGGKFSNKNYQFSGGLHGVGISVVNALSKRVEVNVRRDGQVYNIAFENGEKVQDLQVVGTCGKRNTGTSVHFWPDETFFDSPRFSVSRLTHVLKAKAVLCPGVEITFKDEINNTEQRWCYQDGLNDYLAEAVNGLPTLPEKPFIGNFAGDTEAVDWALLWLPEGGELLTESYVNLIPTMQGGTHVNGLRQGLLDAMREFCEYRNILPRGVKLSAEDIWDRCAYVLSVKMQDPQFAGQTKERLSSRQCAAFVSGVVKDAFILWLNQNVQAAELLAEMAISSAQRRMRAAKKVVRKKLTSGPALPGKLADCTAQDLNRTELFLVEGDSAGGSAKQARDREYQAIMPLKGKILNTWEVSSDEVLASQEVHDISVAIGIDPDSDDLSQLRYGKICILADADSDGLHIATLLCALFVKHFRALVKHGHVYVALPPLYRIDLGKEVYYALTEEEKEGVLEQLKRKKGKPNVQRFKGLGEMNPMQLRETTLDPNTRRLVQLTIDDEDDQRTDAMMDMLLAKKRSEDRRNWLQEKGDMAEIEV

| Structure (SMILES) | MIC (E. coli (QA-11.7); [2]) [µg/mL] | MIC (S. aureus (ATCC 29213); [3]) [µM] | MIC (S. aureus (ATCC 29213); [4]) [µg/mL] | MIC (MRSA (QA-11.2); [5]) [µg/mL] | MIC (E. coli D22; [6]) [µg/mL] | LE DNA Gyrase S. aureus (S. aureus DNA gyrase) | IC50 (S. aureus DNA gyrase) [nM] | IC50 (E. coli Topo IV) [nM] | LE Topo IV E. coli (E. coli Topo IV) | MIC (S. pneumoniae (QA-10/02)) [µg/mL] | MIC (MRSA (QA-11.4); resistant to cefoxitin) [µg/mL] | IC50 (E. coli DNA gyrase) [µM] | MIC (E. coli N43 (CGSC# 5583); [7]) [µM] | MIC (E. coli N43 (CGSC# 5583); [8]) [µg/mL] | Papp at 4 h (in vitro) [×10⁻⁶ cm/s] | Papp at 4 h (in vitro; pH 7.4) [×10⁻⁶ cm/s] | solubility thermodynamic at 24 h [1] [µg/mL] | LE DNA Gyrase E. coli (E. coli DNA gyrase) | also measured |
| --- | --- | --- | --- | --- | --- | --- | --- | --- | --- | --- | --- | --- | --- | --- | --- | --- | --- | --- | --- |
| COc1ccc2nccc(CCN3CCC(NCc4nc5ccccc5n4C)CC3)c2n1 [Compound 3, 1-(2-(6-Methoxy-1,5-naphthyridin-4-yl)ethyl)-N-((1-methyl-1H-benzo[d]imidazol-2-yl)methyl)piperidin-4-amine] | 64 (≈ 149 µM) | 2.32 | 1 | 4 (≈ 9.29 µM) | > 128 | 0.25 | 1600 ± 350 | 1180 ± 90 | 0.25 | 2 (≈ 4.65 µM) | 4 (≈ 9.29 µM) | > 100 | 37.2 | 16 | > 2.7 | 5.4 | 349 (≈ 811 µM) | – | – |
| COc1ccc2nccc(CCN3CCC(NCc4cnn(-c5ccc(F)cc5)c4)CC3)c2n1 [Compound 4, N-((1-(4-Fluorophenyl)-1H-pyrazol-4-yl)methyl)-1-(2-(6-methoxy-1,5-naphthyridin-4-yl)ethyl)piperidin-4-amine] | 16 (≈ 34.7 µM) | 4.34 | 2 | 8 (≈ 17.4 µM) | 16 (≈ 34.7 µM) | 0.25 | 510 ± 250 | 120 ± 10 | 0.28 | 4 (≈ 8.69 µM) | 8 (≈ 17.4 µM) | 13.3 ± 2.84 | 4.34 | 2 | > 2.7 | 14.2 | 585 (≈ 1270 µM) | 0.20 | – |
| COc1ccc2nccc(CCN3CCC(NCc4cnn(-c5ccccc5)c4)CC3)c2n1 [Compound 5, 1-(2-(6-Methoxy-1,5-naphthyridin-4-yl)ethyl)-N-((1-phenyl-1H-pyrazol-4-yl)methyl)piperidin-4-amine] | 2 (≈ 4.52 µM) | 0.57 | 0.25 | 1 (≈ 2.26 µM) | 1 (≈ 2.26 µM) | 0.27 | 330 ± 80 | 85 ± 2 | 0.29 | 0.5 (≈ 1.13 µM) | 1 (≈ 2.26 µM) | 3 ± 0.55 | 2.26 | 1 | > 2.7 | 25.5 | 381 (≈ 861 µM) | 0.23 | improvement in S. aureus gyrase IC50 compared to its predecessor (S. aureus DNA gyrase; vs methoxy-quinoline cyclohexyl-amide predecessor): 2.5 fold; increase in potency on E. coli DNA gyrase (E. coli DNA gyrase; vs most potent compound from previous study [18]): Approximately 4 fold |
| COc1ccc2nccc(CCN3CCC(NCc4c(C)nc5c(C)cccn45)CC3)c2n1 [Compound 6, N-((2,8-Dimethylimidazo[1,2-a]pyridin-3-yl)methyl)-1-(2-(6-methoxy-1,5-naphthyridin-4-yl)ethyl)piperidin-4-amine] | – | – | – | – | – | – | > 100000 | > 100000 | – | > 128 | – | > 100 | 288 | 128 | > 2.7 | 5.6 | 797 (≈ 1790 µM) | – | MIC (E. coli (QA-11.7)): > 128 µg/mL; MIC (S. aureus (ATCC 29213); Staphylococcus aureus, ATCC29213, read-out: MIC S. aureus (ATCC 29213)): > 128 µg/mL; MIC (S. aureus (ATCC 29213); Staphylococcus aureus, ATCC29213, read-out: S. aureus MIC in molar): 288 µM; MIC (MRSA (QA-11.2)): > 128 µg/mL; MIC (E. coli D22; D22, read-out: MIC E. coli D22): > 128 µg/mL; MIC (MRSA (QA-11.4)): > 128 µg/mL |
